Data taken from paper PMC4718634, “Murine GPRC6A Mediates Cellular Responses to L-Amino Acids, but Not Osteocalcin Variants” (PLoS ONE, 2016).
Entries after “also recorded” stand apart in the source; their conditions may differ. Where two headings read alike, the source gives them in different places.

Key:
[1] = target: T1, mGPRC6A (mouse GPRC6A) (Mus musculus, UniProt Q8K4Z6); experiment: ERK1/2 phosphorylation, FlpIn-TREx-HEK293-mGPRC6A cells; type: cell-based
T1 sequence (Q8K4Z6 21-928): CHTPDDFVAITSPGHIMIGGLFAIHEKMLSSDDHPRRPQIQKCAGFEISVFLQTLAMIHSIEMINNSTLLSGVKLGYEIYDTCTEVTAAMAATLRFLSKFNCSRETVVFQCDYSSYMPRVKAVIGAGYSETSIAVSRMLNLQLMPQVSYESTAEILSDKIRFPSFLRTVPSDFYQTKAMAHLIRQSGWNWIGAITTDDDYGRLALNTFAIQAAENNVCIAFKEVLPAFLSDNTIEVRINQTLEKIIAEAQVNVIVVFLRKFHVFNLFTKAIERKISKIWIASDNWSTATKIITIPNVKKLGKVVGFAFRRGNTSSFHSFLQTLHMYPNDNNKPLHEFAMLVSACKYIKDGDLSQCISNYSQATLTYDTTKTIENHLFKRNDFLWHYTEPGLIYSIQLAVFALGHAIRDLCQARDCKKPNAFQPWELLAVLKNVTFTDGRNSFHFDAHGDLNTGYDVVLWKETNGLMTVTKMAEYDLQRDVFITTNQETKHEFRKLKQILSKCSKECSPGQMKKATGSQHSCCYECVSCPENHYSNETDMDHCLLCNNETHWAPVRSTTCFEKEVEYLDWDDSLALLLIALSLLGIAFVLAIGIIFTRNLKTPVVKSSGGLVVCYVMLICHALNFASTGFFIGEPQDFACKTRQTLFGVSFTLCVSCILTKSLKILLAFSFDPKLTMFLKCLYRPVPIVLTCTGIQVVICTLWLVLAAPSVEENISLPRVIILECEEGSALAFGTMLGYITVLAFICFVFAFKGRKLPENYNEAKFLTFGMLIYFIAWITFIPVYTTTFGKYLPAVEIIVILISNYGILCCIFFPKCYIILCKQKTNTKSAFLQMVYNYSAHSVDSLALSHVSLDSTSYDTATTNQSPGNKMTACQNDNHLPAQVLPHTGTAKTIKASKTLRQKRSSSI
Experimental: pcDNA 5/FRT/TO constructs were isogenically integrated into a FlpIn-TREx-HEK293 cell line (Life Technologies). FlpIn-TREx-HEK293-mGPRC6A and FlpIn-TREx-HEK293-hGPRC6A cells were then selected using 600 μg/ml hygromycin and 5 μg/ml blasticidin and grown in culture medium consisting of Dulbecco’s Modified Eagle Medium (DMEM), supplemented with 10% (v/v) foetal bovine serum (FBS) at 37°C in 5% CO2 and were sub-cultured in a 1:3 ratio every 3–4 days. Cells were cultured overnight in the presence of 1 μg/ml tetracycline to induce GPRC6A expression. […] 48 h after transfection, cells were selected using 3 μg/ml puromycin and grown as above.
Cells were then stimulated with ligand at various time points and incubated at 37°C in 5% CO2. 10% FBS (v/v) was used as a positive control. The reaction was terminated by removal of compounds and lysis of cells with SureFire lysis buffer (TGR Biosciences). The lysates were then treated as per the SureFire ERK1/2 kit instructions. Plates were incubated in the dark at 37°C for 1 h, then left to equilibrate with the ambient temperature before the fluorescence signal was measured using a Fusion plate reader (PerkinElmer) with standard AlphaScreen settings. Data were normalised to the maximal response elicited by 10% FBS (v/v) at the same time point.

[2] = tested on: GLUTag cells; experiment: GLP-1 release from GLUTag cells; type: cell-based, murine; conditions: for GLP-1 release (summary): S1 Table
Summary of the method: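 Matrigel-grown cells, where indicated pre-washed in Krebs-HEPES pH 7.2 with 5.5 mM glucose and 300 μM vildagliptin, were exposed to compound for 2 h at 37 °C. Secreted GLP-1 was measured by fluorescent ELISA (355/460 nm) and normalised to Bradford protein. LogEC50 values came from 3- or 4-parameter logistic fits.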

[3] = tested on: mC6A; conditions: cited from earlier work
Text: Supplement pone.0146846.s004.docx, table 1 | column: Functional assay

Molecule	pERK1/2 response (summary) ([1]; S1 Table)	GLP-1 release, OCN ([2]; 0.01–10 ng/ml, with or without cell washing, 2 h, Fig 6A)	GLP-1 release (summary) [2]	IP-One HTRF response to EC25 L-Orn + OCN ([3]; + GqG66D, ref [13] (supplement list))	cAMP accumulation response ([3]; ref [5] (supplement list))	IP-One HTRF response ([3]; ref [13] (supplement list))	cAMP response ([3]; ref [13] (supplement list))	pERK response ([3]; ref [13] (supplement list))	stimulation of ERK1/2 phosphorylation ([1]; without GαqG66D, L-ornithine 1 mM, OCN variants 40 ng/ml, Fig 3B)	GLP-1 release ([2]; L-ornithine 20 mM, 2 h, 37°C, cells washed, **P < 0.01 vs Vehicle, ELISA, Fig 6A)	cAMP response ([3]; ref [3] (supplement list))
OCN: osteoblast-derived peptide, osteocalcin; variant not specified at the place (YLYQWLGAPVPYPDPLEPRREVCELNPDCDELADHIGFQEAYRRFYGPV; UniProt P02818 52-100, looked up)	no response	failed to increase GLP-1 release	No response	No response	cAMP accumulation in response to OCN	No response	no response	No specific response			
NCCC[C@H](N)C(=O)O [L-ornithine]			response				no response	response	Neither L-ornithine (1 mM) nor OCN variants (40 ng/ml) stimulate ERK1/2 phosphorylation; also recorded: no detectable modulation of cAMP accumulation or phosphorylation of ERK1/2	significantly increases GLP-1 release; also recorded: L-ornithine stimulated GLP-1 release	[^3H]IP turnover - co-transfection with Gαqs5, GαqG66D, Gαq or GαqG66Ds5 enabled response to L-aa but Gαqi, Gαqz, Gαqo did not cAMP – no increase or decrease in response to L-Orn
